Source: the NIST ThermoML archive (doi:10.1021/je0601513)

Experiment: molar heat capacity at constant pressure; xn = mol fraction of the nth substance listed
Conditions: 101 kPa, Liquid, Small sample (50 mg) DSC

C[S+](C)[O-] [dimethyl sulfoxide] + CCCO
molar heat capacity at constant pressure [J/K/mol]
Conditions | 288.15 K | 298.15 K | 308.15 K
x1 = 0.0514 | 138.1 | 143.6 | 149.7
x1 = 0.1127 | 137.3 | 142.3 | 147.9
x1 = 0.2114 | 136.2 | 140.3 | 145.2
x1 = 0.3163 | 135.5 | 139.1 | 143
x1 = 0.418 | 135.3 | 138.6 | 141.4
x1 = 0.5029 | 135.7 | 138.6 | 140.9
x1 = 0.6216 | 136.7 | 139.7 | 141.2
x1 = 0.7068 | 138.1 | 141.1 | 142.4
x1 = 0.7975 | 140 | 143.5 | 144.7
x1 = 0.8537 | 141.7 | 145.4 | 146.8
x1 = 0.8994 | 143.1 | 147.4 | 148.7
x1 = 0.9429 | 144.6 | 149.4 | 151
